Experimental data taken from patent publication US11278589B2, “Use of a cyclic tripeptide for improving cellular energy metabolism” (ASSISTANCE PUBLIQUE—HOPITAUX DE PARIS, priority 2015, dated 2022).
Positions of bridges follow the written chain, without caps; N, C: chain ends. Residues, ends and D or L forms follow the SMILES beside them.

System: Human oocytes
Assay: Randomized prospective study in human IVF (fertilin study)
Format: in vivo
Conditions: first step, 56 couples
Description: A clinical trial was begun in the IVF laboratory of the MAP Center of Cochin, on Sep. 8, 2014, on 66 couples, the average age being 34.3±4.2 years old for the women and 37.0±5.2 for their partners. It is a randomized, single-center prospective study of in vitro fertilization (IVF) carried out in the presence or absence of FEEc. The oocytes, recovered from their cumulus, were divided up into two groups alternately into one and then into the other according to their order of recovery. When all the oocytes were recovered, a technician who had not participated in the recovery of the cumuli determined by randomization which of the two groups was inseminated in the presence of FEEc and which served as control. One part of the oocytes is incubated in the standard culture medium (Global, JCD), the other part in this same medium supplemented with 100 μM FEEc.
The methodology of this study, represented diagrammatically in FIG. 9, is presented below. Human oocytes originating from women 18 to 43 years old were recovered by ovarian puncture after hormonal stimulation by gynecologists. They were divided up in a randomized manner into 2 groups: the oocytes incubated in the presence of a standard culture medium supplemented with 100 μM FEEc or of a standard culture medium (Global, JCD), then placed in an incubator at 37° C. under an atmosphere of 5% of CO2. […]

N[C@H]1CSSC[C@@H](C(=O)O)NC(=O)[C@H](CCC(=O)O)NC(=O)[C@H](CCC(=O)O)NC(=O)[C@H](Cc2ccccc2)NC(=O)[C@H](CO)NC1=O [FEEc, C-S-F-E-E-C] (H-CSFEEC-OH; disulfide 1-6)
adverse effect: No adverse effect has been reported to date
